Data reported in patent US20220118117A1, “MODULATORS OF METABOTROPIC GLUTAMATE RECEPTOR 4” (The General Hospital Corporation, priority 2019, published 2022).
“And” between values parts separate entries of the source, which are not always exact repeats. Equal values may be shown once.

Columns and labels:
[1] = solution stability; type: physicochemical
Method: Three pH values, 5, 7.4 and 9.4 were selected to check the solution stability. Aqueous solutions with different pH values were established using the following buffers: sodium acetate-KCl—HCl buffer (20 mM, pH 5.0), phosphate buffer (20 mM, pH 7.4), and boric acid-KCl—NaOH buffer (20 mM, pH 9.4). 891 μL of each pH buffer was placed in different tubes. 9 μL (1 mM) of the sample stock (4, 13, 15 and Diltiazem) was transferred to a particular buffer tube and mixed just before the time 0 min. The mixture was vortexed and incubated at 37° C. After the incubation at the different time points (0, 15, 30, 60, and 120 min), aliquots of 50 μL samples were quenched with 100 μL of ice-cold acetonitrile with 25 μM internal reference, respectively, and analyzed by HPLC. The percentage of the remaining intact compound was calculated by (peak area at the specific time point)/(peak area at 0 min)×100. Every sample was assayed three times.

[2] = plasma stability; type: in vitro ADME; conditions: rat plasma; for Plasma stability, remaining of the intact test compound: 37° C.
Method: Briefly, each tube is added 882 μL of 1:1 diluted rat plasma with phosphate buffer (pH 7.4). 18 μL (100 μM) of DMSO stock solution of the test compound (4, 13 and 15) or positive control compound (Diltiazem) was added to make a final compound concentration 2 μM in the plasma solution and final DMSO content 2%. The mixture was incubated at 37° C. After the incubation at 0, 15, 30, 60, and 120 min time points, aliquots of 50 μL samples were quenched with 100 μL of ice-cold acetonitrile with 25 μM of the internal reference (for HPLC analysis), respectively. The quenched samples were centrifuged at 10,000×g, and the supernatant was analyzed by HPLC. The percentage of remaining intact test compound was calculated by (peak area at the specific time point)/(peak area at 0 min)×100. Every sample was assayed three times.

[3] = target: mGluR4 (Homo sapiens, UniProt Q14833); assay: competitive binding (radioligand replacement) assay with [3H]4 in mGluR4 transfected CHO cells; set-up: expressed in transfected cells; host or cells: CHO cells; conditions: 2 nM [3H]4, read-out: IC50 (nM), affinity to mGluR4
Method: In Vitro mGluR4 Binding Assay. CHO cells expressing mGluR4 were used for all binding assay protocols. For competitive binding, 2 nM of [^3H]4 was used together with increased concentrations of test compounds ranging from 0.01 nM to 10 μM. Each test tube contained 50 000 freshly harvested CHO cells expressing mGluR4 cultured in HAMs cell culture medium with 100 nM of glutamate, penicillin-streptomycin (100 units), and 1 mM G418. [3H]4 (2 nM) was added to the cell extract with and without test compounds on ice and then incubated for 30 min at room temperature. Samples were centrifuged at 1200 rpm for 10 min at 4° C. and washed three times with a cold cell culture medium as a washing buffer. Samples were lysed by adding 100 μL of 0.5% NaOH and heated using a heating block (56° C., 30 min). Samples were cooled with an ice bath and transferred to Solvent-Saver scintillation vials (VWR International LLC.). To obtain binding parameters, the scintillation liquid (PerkinElmer, Optima Gold) was added prior to counting with a scintillation counter (Packard TriCarb Model, 1 min/vial). Nonspecific binding was determined using 10 μM of nonradioactive test compound, and specific binding was determined by extracting the nonspecific binding from total binding. All measurements were done in triplicate and analyzed with GraphPad Prism software (GraphPad Software Inc.).

[4] = microsomal stability; type: in vitro ADME, Sprague-Dawley rat; conditions: rat liver microsomes, NADPH
Method: First, Sprague-Dawley rat liver microsomes (0.5 mg/mL, Sigma-Aldrich, No. M9066) was incubated with PBS (50 mM, pH=7.4) in a reaction tube at 37° C. for 3 min. To the reaction tube were added the test compound (2 μM) and then cofactor, NADPH (1 mM), to start the reaction. The mixture was shaken in a water bath at 37° C. At different time points (0, 5, 10, 15, 30 min), aliquots (50 μL) were removed and added to 100 μl of cold acetonitrile with internal standard (25 μM) to quench the reaction. The precipitated material was by centrifugation (10,000×g, 10 min, 4° C.), and the supernatant was analyzed by RP-HPLC (Column: Phenomenex Luna© 5 μm, Cis, 100 Å, 250×4.6 mm). The RP-HPLC was carried out by using a 15-min gradient method: eluent A: 0.1% formic acid/H2O; eluent B: 0.1% formic acid/CH3CN; gradient: […]; 5% B to 95% B from 1 to 9 min, 95% B from 9 to 12 min, 95% to 5% B from 12 to 13 min, 5% B from 13 to 15 min; flow rate at 0.7 mL/min.
The in peak area ratio (test compound peak area at a time point/peak area at 0 min time point) was plotted against time and the gradient of the line was determined. Subsequently, the half-life (t1/2) was calculated as 0.693/k, where the elimination rate constant k equals to −gradient. V (μL/mg) was obtained as a ratio of volume of incubation […]/protein in the incubation (mg). Finally, the intrinsic clearance (CLint) (μL/min/mg protein) was calculated as V*0.693/t1/2.

[5] = target: T1, mGluR4 (Rattus norvegicus, UniProt P31423); assay: PET blocking studies of [18F]15 binding; type: in vivo, Sprague Dawley rats
T1 construct: from tissue; host or cells: brain of living male Sprague Dawley rats
Method: PET Imaging of [^18F]15 in Rats. Altogether 24 normal male Sprague Dawley rats were used for the imaging studies comprising 15 baseline studies and 15 blocking studies. Rats were anaesthetized with isoflurane/nitrous oxide (1.0-1.5% isoflurane, with oxygen flow of 1-1.5 L/min), and catheter was installed into tail vein for the administration of [^18F]15. Dynamic volumetric PET data was acquired with a PET-CT scanner for 60 min (Triumph-II, Tri-Foil Imaging, Northridge, Calif.). The vital signals such as heart rate and respiration rate were monitored during scanning period. PET data acquisition was started immediately after administration of radioactivity with the dose range of 18-34 MBq depending on the size of the rat followed by CT imaging to obtain anatomical information and data for attenuation correction of PET data. PET data was processed by using maximum-likelihood expectation-maximization (MLEM) algorithm with 30 iterations to dynamic volumetric images, and corrected for uniformity, scatter, and attenuation. The CT data was processed by the modified Feldkamp algorithm using matrix volumes of 512×512×512 and pixel size of […]. Co-registration of CT and PET images and analysis of PET images were carried out using PMOD3.2 software (PMOD Technology, Zurich, Switzerland).
For blocking studies, the same scanning protocols were used as for the baseline studies. For mGluR4 blocking experiments, 1, 2 or 3 mg/kg of 13 or 15 dissolved in a saline solution with 10% DMSO, 5% Tween-20 and 85% PBS was injected 1 min before iv administration of [^18F]15.

T1 sequence (P31423 33-912): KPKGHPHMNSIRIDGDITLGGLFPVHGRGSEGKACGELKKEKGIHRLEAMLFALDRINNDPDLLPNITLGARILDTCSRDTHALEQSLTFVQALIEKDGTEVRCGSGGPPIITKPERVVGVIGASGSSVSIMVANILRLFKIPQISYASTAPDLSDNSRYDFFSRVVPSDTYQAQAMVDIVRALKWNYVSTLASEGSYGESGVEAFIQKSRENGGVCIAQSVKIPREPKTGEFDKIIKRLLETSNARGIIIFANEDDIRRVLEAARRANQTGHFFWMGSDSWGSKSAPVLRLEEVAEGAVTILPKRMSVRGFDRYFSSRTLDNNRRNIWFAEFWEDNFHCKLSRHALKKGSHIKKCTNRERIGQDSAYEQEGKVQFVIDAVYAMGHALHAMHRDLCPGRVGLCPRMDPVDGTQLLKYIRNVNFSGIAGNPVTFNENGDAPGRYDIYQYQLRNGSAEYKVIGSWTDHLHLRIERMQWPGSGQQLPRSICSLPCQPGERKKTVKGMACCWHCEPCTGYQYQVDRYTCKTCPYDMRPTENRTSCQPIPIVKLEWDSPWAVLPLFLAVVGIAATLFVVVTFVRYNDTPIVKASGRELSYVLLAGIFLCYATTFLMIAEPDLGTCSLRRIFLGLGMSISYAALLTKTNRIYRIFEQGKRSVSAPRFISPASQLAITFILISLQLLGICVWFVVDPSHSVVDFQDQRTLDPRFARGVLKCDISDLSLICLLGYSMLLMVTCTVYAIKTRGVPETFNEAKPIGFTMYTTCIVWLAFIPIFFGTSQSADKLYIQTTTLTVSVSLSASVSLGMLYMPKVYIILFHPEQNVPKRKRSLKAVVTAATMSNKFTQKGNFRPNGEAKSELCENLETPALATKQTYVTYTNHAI
mGluR4 (Homo sapiens, UniProt Q14833), sequence (Q14833 33-912): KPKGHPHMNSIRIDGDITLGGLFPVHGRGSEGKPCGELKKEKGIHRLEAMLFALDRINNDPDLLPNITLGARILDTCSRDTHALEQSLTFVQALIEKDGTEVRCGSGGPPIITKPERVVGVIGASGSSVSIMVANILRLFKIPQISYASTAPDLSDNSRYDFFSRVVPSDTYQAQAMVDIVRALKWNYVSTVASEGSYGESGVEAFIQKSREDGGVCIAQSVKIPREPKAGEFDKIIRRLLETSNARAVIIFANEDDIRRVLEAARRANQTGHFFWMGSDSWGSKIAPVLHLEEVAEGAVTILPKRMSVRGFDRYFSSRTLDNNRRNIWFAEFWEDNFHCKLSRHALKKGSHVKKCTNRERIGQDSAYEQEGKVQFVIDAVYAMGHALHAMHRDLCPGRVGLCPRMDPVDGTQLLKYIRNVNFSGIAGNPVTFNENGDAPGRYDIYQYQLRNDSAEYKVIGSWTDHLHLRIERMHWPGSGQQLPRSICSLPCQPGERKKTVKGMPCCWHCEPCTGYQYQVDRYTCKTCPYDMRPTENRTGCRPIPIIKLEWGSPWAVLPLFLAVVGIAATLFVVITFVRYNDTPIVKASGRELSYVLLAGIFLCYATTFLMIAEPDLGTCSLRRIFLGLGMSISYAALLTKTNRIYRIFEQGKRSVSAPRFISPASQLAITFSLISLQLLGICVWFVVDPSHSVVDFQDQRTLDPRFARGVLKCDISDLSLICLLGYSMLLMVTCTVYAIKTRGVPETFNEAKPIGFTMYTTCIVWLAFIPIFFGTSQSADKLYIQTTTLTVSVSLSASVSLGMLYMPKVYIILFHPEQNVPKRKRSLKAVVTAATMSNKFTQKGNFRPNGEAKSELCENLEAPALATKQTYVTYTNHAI

The solution stability, The intact ± SEM at 120 min (%) ([1]; pH = 5.0, 37° C.)	The solution stability, The intact ± SEM at 120 min (%) ([1]; pH = 7.4, 37° C.)	The solution stability, The intact ± SEM at 120 min (%) ([1]; pH = 9.4, 37° C.)	Plasma stability, remaining of the intact test compound ([2]; 0 min) [%]	Plasma stability, remaining of the intact test compound ([2]; 15 min) [%]	Plasma stability, remaining of the intact test compound ([2]; 30 min) [%]	Plasma stability, remaining of the intact test compound ([2]; 60 min) [%]	Plasma stability, remaining of the intact test compound ([2]; 120 min) [%]	The plasma stability, The intact ± SEM at 120 min (%) ([2]; 120 min)	blocking effect on [18F]15 binding ([5]; 1 mg/kg, pre-administration)	blocking of [18F]15 binding in the whole brain ([5]; blocking agent injected 1 min before [18F]15)	blocking of [18F]15 binding in striatum ([5]; dose 1 mg/kg) [%]	blocking of [18F]15 binding in striatum ([5]; dose 2 mg/kg) [%]	blocking of [18F]15 binding in striatum ([5]; dose 3 mg/kg) [%]	Compound	IC50 [3] [nM]	The microsome stability Clint (μL/min/mg protein) [4] [μL/min/mg protein]	The microsome stability t1/2 [4]
85.9 ± 0.8	87.9 ± 3.4	89.3 ± 1.3	100.00 ± 0.21	95.34 ± 12.08	95.27 ± 7.76	93.62 ± 8.76	91.52 ± 2.49	91.5 ± 2.5	25-30%	22-25%	18	20	28	CSc1cc(NC(=O)c2ccccn2)ccc1Cl [Compound 13]	3.4	54.8	25.30 min
94.7 ± 1.4	99.0 ± 5.7	69.8 ± 2.6	100.00 ± 8.98	87.33 ± 9.53	75.23 ± 4.03	58.91 ± 13.39	48.97 ± 10.63	49.0 ± 10.6	–	–	–	–	–	COc1ccc([C@@H]2Sc3ccccc3N(CCN(C)C)C(=O)[C@@H]2OC(C)=O)cc1 [Diltiazem]	–	–	–

Compound	The solution stability, The intact ± SEM at 120 min (%) ([1]; pH = 5.0, 37° C.)	The solution stability, The intact ± SEM at 120 min (%) ([1]; pH = 7.4, 37° C.)	The solution stability, The intact ± SEM at 120 min (%) ([1]; pH = 9.4, 37° C.)	Plasma stability, remaining of the intact test compound ([2]; 0 min) [%]	Plasma stability, remaining of the intact test compound ([2]; 15 min) [%]	Plasma stability, remaining of the intact test compound ([2]; 30 min) [%]	Plasma stability, remaining of the intact test compound ([2]; 60 min) [%]	Plasma stability, remaining of the intact test compound ([2]; 120 min) [%]	The plasma stability, The intact ± SEM at 120 min (%) ([2]; 120 min)	blocking effect on [18F]15 binding ([5]; 1 mg/kg, pre-administration)	blocking of [18F]15 binding in the whole brain ([5]; blocking agent injected 1 min before [18F]15)	blocking of [18F]15 binding in striatum ([5]; dose 1 mg/kg) [%]	blocking of [18F]15 binding in striatum ([5]; dose 2 mg/kg) [%]	blocking of [18F]15 binding in striatum ([5]; dose 3 mg/kg) [%]	IC50 [3] [nM]	The microsome stability Clint (μL/min/mg protein) [4] [μL/min/mg protein]	The microsome stability t1/2 [4]
COc1cc(NC(=O)c2ccccn2)ccc1Cl [Compound 4]	92.7 ± 3.1	97.3 ± 1.1	89.1 ± 2.1	100.00 ± 4.65	94.45 ± 1.65	97.56 ± 11.8	100.35 ± 8.04	98.21 ± 6.32	98.2 ± 6.3	–	–	–	–	–	5.1	96.2	14.41 min and 14.4 min
